Reference: ChEMBL document CHEMBL1201862, “PubChem BioAssay data set” (2004)
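Compound exposure: 48 hours, 5 concentrations, 96-well plates. At the GI50, growth is halved.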 Activity calls are given as the source filed them. Rule as the data show it: active = GI50 up to about 1.1 µM and inactive = higher.

Assays:
Experiment in all cases: NCI tumour cell line growth inhibition, 48 h
DU-145 = tested on: DU-145
HOP-92 = tested on: HOP-92
HT-29 = tested on: HT-29
IGROV-1 = tested on: IGROV-1
KM12 = tested on: KM12
MDA-MB-231 = tested on: MDA-MB-231
Malme-3M = tested on: Malme-3M
NCI-H460 = tested on: NCI-H460
NCI-H522 = tested on: NCI-H522
OVCAR-8 = tested on: OVCAR-8
RXF 393 = tested on: RXF 393
SF-268 = tested on: SF-268
SF-295 = tested on: SF-295
SF-539 = tested on: SF-539
SK-MEL-5 = tested on: SK-MEL-5
SK-OV-3 = tested on: SK-OV-3
SN12C = tested on: SN12C
T47D = tested on: T47D
U-251 = tested on: U-251
UACC-257 = tested on: UACC-257

Compound	GI50 (DU-145)	GI50 (HOP-92)	GI50 (HT-29)	GI50 (IGROV-1)	GI50 (KM12)	GI50 (MDA-MB-231)	GI50 (Malme-3M)	GI50 (NCI-H460)	GI50 (NCI-H522)	GI50 (OVCAR-8)	GI50 (RXF 393)	GI50 (SF-268)	GI50 (SF-295)	GI50 (SF-539)	GI50 (SK-MEL-5)	GI50 (SK-OV-3)	GI50 (SN12C)	GI50 (T47D)	GI50 (U-251)	GI50 (UACC-257)
O=C(O)CNc1ccc2c(c1)Cc1cc(Br)ccc1-2	25.9 µM (inactive)	25.6 µM (inactive)	27.1 µM (inactive)	18 µM (inactive)	9.57 µM (inactive)	19.7 µM (inactive)	20.6 µM (inactive)	21.8 µM (inactive)	18.5 µM (inactive)	23.9 µM (inactive)	31 µM (inactive)	28.5 µM (inactive)	24.5 µM (inactive)	23.7 µM (inactive)	6.55 µM (inactive)	26.5 µM (inactive)	22.7 µM (inactive)	20.4 µM (inactive)	26.6 µM (inactive)	22.8 µM (inactive)
Cc1ccc(S(=O)(=O)N/N=C/C(Br)=C(/Br)C(=O)O)cc1	12.2 µM (inactive)	11.3 µM (inactive)	5.16 µM (inactive)	16.1 µM (inactive)	10.6 µM (inactive)	14.8 µM (inactive)	4.39 µM (inactive)	17.5 µM (inactive)	1.99 µM (inactive)	2.6 µM (inactive)	2.21 µM (inactive)	11.4 µM (inactive)	14.1 µM (inactive)	5.69 µM (inactive)	11.7 µM (inactive)	16.4 µM (inactive)	9.93 µM (inactive)	4.57 µM (inactive)	4.22 µM (inactive)	12.1 µM (inactive)
CC(=O)O[C@H]1C(=O)[C@@]2(C)[C@H]([C@H](OC(=O)C3CCCCC3)[C@]3(O)C[C@H](OC(=O)[C@H](O)[C@@H](NC(=O)C4CCCCC4)C4CCCCC4)C(C)=C1C3(C)C)[C@]1(OC(C)=O)CO[C@@H]1C[C@@H]2O	0.151 µM (active)	0.0427 µM (active)	–	0.027 µM (active)	0.0101 µM (active)	0.0336 µM (active)	0.0323 µM (active)	0.00723 µM (active)	0.00658 µM (active)	0.0228 µM (active)	0.0407 µM (active)	0.408 µM (active)	0.0321 µM (active)	0.0366 µM (active)	0.0147 µM (active)	0.029 µM (active)	0.0942 µM (active)	0.0219 µM (active)	0.0117 µM (active)	0.0389 µM (active)
CCC1C(c2cc(OC)c(OC)c(OC)c2)c2cc3c(cc2OC1N1CCCC1)OCO3 (stereo not drawn)	2.37 µM (inactive)	4.18 µM (inactive)	1.37 µM (inactive)	2.62 µM (inactive)	0.743 µM (active)	3.83 µM (inactive)	6.98 µM (inactive)	2.84 µM (inactive)	2.29 µM (inactive)	4.07 µM (inactive)	1.45 µM (inactive)	4.58 µM (inactive)	1.07 µM (active)	1.39 µM (inactive)	0.678 µM (active)	3.42 µM (inactive)	4.36 µM (inactive)	3.78 µM (inactive)	2.56 µM (inactive)	4.59 µM (inactive)
COc1ccc(C2NC(=O)Nc3c2c(=O)oc2c3ccc3ccccc32)cc1 (stereo not drawn)	> 100 µM (inactive)	35.2 µM (inactive)	77.6 µM (inactive)	50.4 µM (inactive)	57 µM (inactive)	54 µM (inactive)	68.9 µM (inactive)	50.8 µM (inactive)	53.2 µM (inactive)	66.8 µM (inactive)	42 µM (inactive)	56.4 µM (inactive)	51.4 µM (inactive)	83 µM (inactive)	71.6 µM (inactive)	> 100 µM (inactive)	68.7 µM (inactive)	31.1 µM (inactive)	36.7 µM (inactive)	> 100 µM (inactive)
N#Cc1ccc(C2ON=C(c3ccccc3)N2C23CC4CC(CC(C4)C2)C3)cc1 (stereo not drawn)	> 10 µM (inactive)	> 10 µM (inactive)	> 10 µM (inactive)	> 10 µM (inactive)	> 10 µM (inactive)	> 10 µM (inactive)	> 10 µM (inactive)	> 10 µM (inactive)	> 10 µM (inactive)	> 10 µM (inactive)	> 10 µM (inactive)	> 10 µM (inactive)	> 10 µM (inactive)	> 10 µM (inactive)	> 10 µM (inactive)	> 10 µM (inactive)	> 10 µM (inactive)	> 10 µM (inactive)	> 10 µM (inactive)	> 10 µM (inactive)
Cc1ccc2oc(=O)c3c(O)c4cccc(OC5OC(C)C6O[C@@H](c7ccccc7)OC6C5OC5OC(C)C(O)C(O)C5O)c4c4oc(=O)c1c2c34 (stereo partly drawn)	0.174 µM (active)	0.843 µM (active)	0.0472 µM (active)	0.0264 µM (active)	0.0785 µM (active)	0.197 µM (active)	0.441 µM (active)	< 0.0316 µM (active)	0.0574 µM (active)	< 0.0215 µM (active)	0.187 µM (active)	0.0545 µM (active)	0.0303 µM (active)	0.0571 µM (active)	0.0509 µM (active)	0.2 µM (active)	0.051 µM (active)	0.0585 µM (active)	0.0535 µM (active)	–
